Among the data in ChEMBL document CHEMBL1143365, “Function-oriented synthesis applied to the anti-botulinum natural product toosendanin” (Bioorg Med Chem, 2009) are Activity values, retold here.

The structures appear in SMILES notation. The source made the active and inactive calls. The rule behind the calls is not given here.

The subject of series [1] is Mus musculus. The experiment in a line: Antibotulinum activity against botulinum neurotoxin serotype A-induced toxicity in iv dosed mouse after 48 hrs. It counts as functional, organism-based.
The species entered for series [2] is Mus musculus. Kind of series: Toxicity in mouse at 2.5 mM. It counts as organism-based. The following applies: in vivo, 2500 µM.
Series [3] deals with Mus musculus. Kind of series: Antibotulinum activity against botulinum neurotoxin serotype A-induced toxicity in iv dosed mouse assessed as time to death. The class given is functional.

As for `CC(=O)OC1C(=O)CC(C)(C)C23OC2CC(c2ccccc2)C13C` (racemic), the outcome in the series on Mus musculus [1] was inactive. Further, the Activity result in the series filed under Mus musculus [2] is on record as “Non-toxic”. On to `CC(=O)O[C@@H]1C[C@H](O)[C@@]23CO[C@@H](O)[C@]1(C)[C@@H]2C[C@@H](O)[C@]1(C)[C@@H]3C(=O)[C@H](OC(C)=O)[C@@]2(C)[C@H](c3ccoc3)C[C@H]3O[C@]321` [TOOSENDANIN], for which, in the series with Mus musculus [3], the Activity is 7.1 h.
